Test results reported in patent US10414811B2, “Protease-resistant lipidated GLP-1 analogs” (MEDIMMUNE LIMITED, priority 2015, dated 2019).
Read-outs that look alike come from different tables or passages of the source. Numbered stars: 1 amine (or outer) side, 2 acyl side, 3 side chain; on linkers, the order of the positions; unused ones are H or OH. Square brackets hold non-standard residues; d marks the D form. Side chains are listed from the residue outwards. Peptide text beside a SMILES is read from it. * marks the point of attachment. C18 diacid = O=C(O)CCCCCCCCCCCCCCCCC(=O)*; γGlu = O=C(O)[C@H](CCC(=O)[*:2])N[*:1]; Palmitoyl = CCCCCCCCCCCCCCCC(=O)*; αMeF = C[C@](N)(Cc1ccccc1)C(=O)O; αMeK = C[C@](N)(CCCCN)C(=O)O; αMeS = C[C@](N)(CO)C(=O)O; AEEA = NCCOCCOCC(=O)O; Aib = CC(C)(N)C(=O)O

Experiments:
Format in all cases: cell-based
GLP-1R (INS1e assay) = target: T1, GLP-1R (INS1e assay) (Rattus norvegicus, UniProt P32301); assay: INS1e assay, cAMP activity at GLP-1R; conditions: mono-lipidated peptides
T1 construct: endogenous in cells; host or cells: INS-1E cells
T1 sequence (P32301 22-463): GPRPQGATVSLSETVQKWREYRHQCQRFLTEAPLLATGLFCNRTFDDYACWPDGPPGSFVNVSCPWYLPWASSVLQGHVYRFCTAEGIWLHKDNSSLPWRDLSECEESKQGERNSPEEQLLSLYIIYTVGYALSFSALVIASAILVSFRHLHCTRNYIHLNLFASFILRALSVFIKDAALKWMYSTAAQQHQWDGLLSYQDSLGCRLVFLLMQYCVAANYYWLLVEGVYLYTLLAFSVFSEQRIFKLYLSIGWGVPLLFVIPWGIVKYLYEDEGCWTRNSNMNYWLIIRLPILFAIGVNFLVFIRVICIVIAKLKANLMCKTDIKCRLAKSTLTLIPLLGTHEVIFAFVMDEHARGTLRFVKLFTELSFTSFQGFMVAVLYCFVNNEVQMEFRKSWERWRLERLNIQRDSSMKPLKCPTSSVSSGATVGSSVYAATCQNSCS
Summary of the method: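 cAMP was quantified by two-step HTRF, using anti-cAMP cryptate donor and cAMP-d2 acceptor, each diluted 1/20 in conjugate and lysis buffer. EC50 values of the synthetic peptides were derived from the cAMP readout.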

[1] = target: T2, human glucose-dependent insulinotropic peptide receptor (GIPR) (Homo sapiens, UniProt P48546); assay: cAMP assay, human GIPR cells; conditions: cAMP assay
T2 construct: expressed in transfected cells
T2 sequence (P48546 22-466): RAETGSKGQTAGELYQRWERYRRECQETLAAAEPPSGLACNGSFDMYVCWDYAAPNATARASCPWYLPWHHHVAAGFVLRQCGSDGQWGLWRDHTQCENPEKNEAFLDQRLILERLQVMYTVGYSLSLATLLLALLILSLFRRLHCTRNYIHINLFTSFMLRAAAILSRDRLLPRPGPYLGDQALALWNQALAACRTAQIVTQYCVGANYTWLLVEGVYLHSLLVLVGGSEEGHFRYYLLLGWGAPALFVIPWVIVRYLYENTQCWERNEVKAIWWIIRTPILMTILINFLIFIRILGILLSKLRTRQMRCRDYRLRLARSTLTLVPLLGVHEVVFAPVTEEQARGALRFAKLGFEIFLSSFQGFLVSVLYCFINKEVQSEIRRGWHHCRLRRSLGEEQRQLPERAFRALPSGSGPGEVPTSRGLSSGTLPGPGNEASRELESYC
Summary of the method: (§1)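 Peptide-stimulated cAMP measured by two-step HTRF after a 30 min room-temperature incubation with receptor-expressing cells (hGLP-1R, hGIPR at 1×10^5 cells/ml; hGCGR at 2×10^5 cells/ml). Duplicate dilutions; EC50 from 4-parameter logistic fit of % Delta F.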

[2] = target: T3, human GLP-1 receptor (GLP-1R) (Homo sapiens, UniProt P43220); assay: cAMP assay, human GLP-1R cells
T3 construct: expressed in transfected cells
Summary of the method: as §1

[3] = target: T4, human glucagon receptor (GCGR) (Homo sapiens, UniProt P47871); assay: cAMP assay, human GCGR cells; conditions: cAMP assay
T4 construct: expressed in transfected cells
Summary of the method: as §1

[4] = mean of n1 and n2, read-out: INS1e assay EC50 Mean pM GLP-1R
[5] = replicate n1, read-out: INS1e assay EC50 GLP-1R n1
[6] = replicate n2, read-out: INS1e assay EC50 GLP-1R n2
[7] = first determination (n1), read-out: Primary assay EC50 GIP-R (n1)
[8] = second determination (n2), read-out: Primary assay EC50 GIP-R (n2)
[9] = cAMP assay, second determination (n2), read-out: Primary assay EC50 GLP-1R n2
[10] = first determination (n1), read-out: Primary assay EC50 Gluc-R (n1)
[11] = second determination (n2), read-out: Primary assay EC50 Gluc-R (n2)
[12] = cAMP assay, first determination (n1), read-out: Primary assay EC50 GLP-1R n1
[13] = mean of n1 and n2, read-out: Mean pM GLP-1R

T4 sequence (P47871 26-477): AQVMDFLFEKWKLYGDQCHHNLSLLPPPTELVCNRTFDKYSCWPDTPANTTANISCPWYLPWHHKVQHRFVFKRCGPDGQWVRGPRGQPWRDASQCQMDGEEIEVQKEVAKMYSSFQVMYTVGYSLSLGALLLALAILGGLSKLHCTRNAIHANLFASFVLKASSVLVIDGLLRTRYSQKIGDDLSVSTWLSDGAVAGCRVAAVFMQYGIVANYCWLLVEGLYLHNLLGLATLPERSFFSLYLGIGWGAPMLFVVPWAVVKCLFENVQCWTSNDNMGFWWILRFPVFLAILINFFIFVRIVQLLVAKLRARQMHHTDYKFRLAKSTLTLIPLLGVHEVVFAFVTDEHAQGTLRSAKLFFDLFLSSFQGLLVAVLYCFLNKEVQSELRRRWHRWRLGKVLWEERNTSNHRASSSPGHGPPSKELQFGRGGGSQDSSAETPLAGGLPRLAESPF
T3 sequence (P43220 24-463): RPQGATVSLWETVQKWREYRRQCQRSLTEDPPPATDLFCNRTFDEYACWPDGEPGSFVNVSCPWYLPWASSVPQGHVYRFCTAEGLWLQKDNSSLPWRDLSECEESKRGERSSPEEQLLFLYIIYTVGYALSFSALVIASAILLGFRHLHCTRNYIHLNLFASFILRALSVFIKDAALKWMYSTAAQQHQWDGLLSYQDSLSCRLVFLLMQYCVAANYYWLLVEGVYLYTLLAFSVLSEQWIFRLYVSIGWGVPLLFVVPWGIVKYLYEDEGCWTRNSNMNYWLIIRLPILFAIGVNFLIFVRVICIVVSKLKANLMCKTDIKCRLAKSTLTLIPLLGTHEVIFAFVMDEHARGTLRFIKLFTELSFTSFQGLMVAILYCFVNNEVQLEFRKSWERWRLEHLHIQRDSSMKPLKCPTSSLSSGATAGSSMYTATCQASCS

EC50 (GLP-1R (INS1e assay); [4]) [pM]	EC50 (GLP-1R (INS1e assay); [5]) [pM]	EC50 (GLP-1R (INS1e assay); [6]) [pM]	EC50 [1, 7] [nM]	EC50 [1, 8] [nM]	EC50 [2, 9] [pM]	EC50 [3, 10] [nM]	EC50 [3, 11] [nM]	EC50 [2, 12] [pM]	EC50 [2, 13] [pM]	SMILES
385	294	476	≥ 25	≥ 25.4	5.07	≥ 25	≥ 25.4			CC[C@H](C)[C@H](NC(=O)[C@](C)(Cc1ccccc1)NC(=O)[C@H](CCC(=O)O)NC(=O)[C@](C)(CCCCN)NC(=O)[C@H](C)NC(=O)[C@H](C)NC(=O)[C@H](CCCCNC(=O)COCCOCCNC(=O)COCCOCCNC(=O)CC[C@H](NC(=O)CCCCCCCCCCCCCCCCC(=O)O)C(=O)O)NC(=O)CNC(=O)[C@H](CCC(=O)O)NC(=O)[C@H](CC(C)C)NC(=O)[C@](C)(Cc1ccccc1)NC(=O)[C@H](CO)NC(=O)[C@](C)(CO)NC(=O)[C@@H](NC(=O)[C@H](CC(=O)O)NC(=O)[C@H](CO)NC(=O)[C@@H](NC(=O)[C@](C)(Cc1ccccc1)NC(=O)[C@H](CO)NC(=O)CNC(=O)[C@H](CCC(=O)O)NC(=O)C(C)(C)NC(=O)[C@@H](N)Cc1c[nH]cn1)[C@@H](C)O)C(C)C)C(=O)N[C@@H](C)C(=O)N[C@@](C)(Cc1ccccc1)C(=O)N[C@H](C(=O)N[C@H](C(=O)N[C@@](C)(CCCCN)C(=O)NCC(=O)NCC(N)=O)C(C)C)C(C)C [compound 112] (H-H[Aib]EGS[αMeF]TSDV[αMeS]S[αMeF]LEGK([AEEA-AEEA-γGlu-C18 diacid])AA[αMeK]E[αMeF]IA[αMeF]VV[αMeK]GG-NH2; N-terminus assumed)
102	77.4	127	≥ 28	≥ 28		≥ 28	≥ 28	2.3		CCCCCCCCCCCCCCCC(=O)N[C@@H](CCC(=O)NCCCC[C@H](NC(=O)[C@](C)(Cc1ccccc1)NC(=O)[C@H](C)NC(=O)[C@@H](NC(=O)[C@](C)(Cc1ccccc1)NC(=O)[C@H](CCC(=O)O)NC(=O)[C@](C)(CCCCN)NC(=O)[C@H](C)NC(=O)[C@H](C)NC(=O)[C@H](CCC(=O)O)NC(=O)CNC(=O)[C@H](CCC(=O)O)NC(=O)[C@H](CC(C)C)NC(=O)[C@](C)(Cc1ccccc1)NC(=O)[C@H](CO)NC(=O)[C@](C)(CO)NC(=O)[C@@H](NC(=O)[C@H](CC(=O)O)NC(=O)[C@H](CO)NC(=O)[C@@H](NC(=O)[C@](C)(Cc1ccccc1)NC(=O)[C@H](CO)NC(=O)CNC(=O)[C@H](CCC(=O)O)NC(=O)C(C)(C)NC(=O)[C@@H](N)Cc1c[nH]cn1)[C@@H](C)O)C(C)C)[C@@H](C)CC)C(=O)N[C@H](C(=O)N[C@@](C)(CCCCN)C(=O)NCC(=O)NCC(N)=O)C(C)C)C(=O)O [compound 74] (H-H[Aib]EGS[αMeF]TSDV[αMeS]S[αMeF]LEGEAA[αMeK]E[αMeF]IA[αMeF]K([γGlu-Palmitoyl])V[αMeK]GG-NH2)
822	233	1410	≥ 25	≥ 24.9		≥ 25	≥ 24.9	16		CC[C@H](C)[C@H](NC(=O)[C@](C)(Cc1ccccc1)NC(=O)[C@H](CCC(=O)O)NC(=O)[C@](C)(CCCCN)NC(=O)[C@H](C)NC(=O)[C@H](C)NC(=O)[C@H](CCC(=O)O)NC(=O)CNC(=O)[C@H](CCC(=O)O)NC(=O)[C@H](CC(C)C)NC(=O)[C@](C)(Cc1ccccc1)NC(=O)[C@H](CO)NC(=O)[C@](C)(CO)NC(=O)[C@@H](NC(=O)[C@H](CC(=O)O)NC(=O)[C@H](CO)NC(=O)[C@@H](NC(=O)[C@](C)(Cc1ccccc1)NC(=O)[C@H](CO)NC(=O)CNC(=O)[C@H](CCC(=O)O)NC(=O)C(C)(C)NC(=O)[C@@H](N)Cc1c[nH]cn1)[C@@H](C)O)C(C)C)C(=O)N[C@@H](C)C(=O)N[C@@](C)(Cc1ccccc1)C(=O)N[C@H](C(=O)N[C@H](C(=O)N[C@@](C)(CCCCN)C(=O)N[C@@H](CCCCNC(=O)COCCOCCNC(=O)COCCOCCNC(=O)CC[C@H](NC(=O)CCCCCCCCCCCCCCCCC(=O)O)C(=O)O)C(=O)NCC(N)=O)C(C)C)C(C)C [compound 100] (H-H[Aib]EGS[αMeF]TSDV[αMeS]S[αMeF]LEGEAA[αMeK]E[αMeF]IA[αMeF]VV[αMeK]K([AEEA-AEEA-γGlu-C18 diacid])G-NH2)
187	207	167	≥ 31	≥ 31	11	≥ 31	≥ 31	6.9	8.7	CC[C@H](C)[C@H](NC(=O)[C@](C)(Cc1ccccc1)NC(=O)[C@H](CCC(=O)O)NC(=O)[C@H](CCC(=O)O)NC(=O)[C@H](C)NC(=O)[C@H](C)NC(=O)[C@H](CCC(=O)O)NC(=O)CNC(=O)[C@H](CCC(=O)O)NC(=O)[C@H](CC(C)C)NC(=O)[C@](C)(Cc1ccccc1)NC(=O)[C@H](CO)NC(=O)[C@](C)(CO)NC(=O)[C@@H](NC(=O)[C@H](CC(=O)O)NC(=O)[C@H](CO)NC(=O)[C@@H](NC(=O)[C@](C)(Cc1ccccc1)NC(=O)[C@H](CO)NC(=O)CNC(=O)[C@H](CCC(=O)O)NC(=O)C(C)(C)NC(=O)[C@@H](N)Cc1c[nH]cn1)[C@@H](C)O)C(C)C)C(=O)N[C@@H](C)C(=O)N[C@@](C)(Cc1ccccc1)C(=O)N[C@H](C(=O)N[C@H](C(=O)N[C@@](C)(CCCCN)C(=O)NCC(=O)NCC(N)=O)C(C)C)C(C)C [compound 42] (H-H[Aib]EGS[αMeF]TSDV[αMeS]S[αMeF]LEGEAAEE[αMeF]IA[αMeF]VV[αMeK]GG-NH2)
25	32.3	17.1	≥ 26	≥ 26	2.3	≥ 26	≥ 26	2.8	2.5	CCCCCCCCCCCCCCCCCC(=O)NCCOCCOCC(=O)NCCOCCOCC(=O)NCCOCCOCC(=O)NCCCC[C@H](NC(=O)[C@H](C)NC(=O)[C@H](C)NC(=O)[C@H](CCC(=O)O)NC(=O)CNC(=O)[C@H](CCC(=O)O)NC(=O)[C@H](CC(C)C)NC(=O)[C@](C)(Cc1ccccc1)NC(=O)[C@H](CO)NC(=O)[C@](C)(CO)NC(=O)[C@@H](NC(=O)[C@H](CC(=O)O)NC(=O)[C@H](CO)NC(=O)[C@@H](NC(=O)[C@](C)(Cc1ccccc1)NC(=O)[C@H](CO)NC(=O)CNC(=O)[C@H](CCC(=O)O)NC(=O)C(C)(C)NC(=O)[C@@H](N)Cc1c[nH]cn1)[C@@H](C)O)C(C)C)C(=O)N[C@@H](CCC(=O)O)C(=O)N[C@@](C)(Cc1ccccc1)C(=O)N[C@H](C(=O)N[C@@H](C)C(=O)N[C@@](C)(Cc1ccccc1)C(=O)N[C@H](C(=O)N[C@H](C(=O)N[C@@](C)(CCCCN)C(=O)NCC(=O)NCC(N)=O)C(C)C)C(C)C)[C@@H](C)CC [compound 154]
194	137	250	≥ 28	≥ 28	4	≥ 28	≥ 28	3.2	3.6	CCCCCCCCCCCCCCCC(=O)N[C@@H](CCC(=O)NCCCC[C@H](NC(=O)CNC(=O)[C@H](CCC(=O)O)NC(=O)[C@H](CC(C)C)NC(=O)[C@](C)(Cc1ccccc1)NC(=O)[C@H](CO)NC(=O)[C@](C)(CO)NC(=O)[C@@H](NC(=O)[C@H](CC(=O)O)NC(=O)[C@H](CO)NC(=O)[C@@H](NC(=O)[C@](C)(Cc1ccccc1)NC(=O)[C@H](CO)NC(=O)CNC(=O)[C@H](CCC(=O)O)NC(=O)C(C)(C)NC(=O)[C@@H](N)Cc1c[nH]cn1)[C@@H](C)O)C(C)C)C(=O)N[C@@H](C)C(=O)N[C@@H](C)C(=O)N[C@@](C)(CCCCN)C(=O)N[C@@H](CCC(=O)O)C(=O)N[C@@](C)(Cc1ccccc1)C(=O)N[C@H](C(=O)N[C@@H](C)C(=O)N[C@@](C)(Cc1ccccc1)C(=O)N[C@H](C(=O)N[C@H](C(=O)N[C@@](C)(CCCCN)C(=O)NCC(=O)NCC(N)=O)C(C)C)C(C)C)[C@@H](C)CC)C(=O)O [compound 83] (H-H[Aib]EGS[αMeF]TSDV[αMeS]S[αMeF]LEGK([γGlu-Palmitoyl])AA[αMeK]E[αMeF]IA[αMeF]VV[αMeK]GG-NH2)
